# Data as given in ChEMBL document CHEMBL1201862, “PubChem BioAssay data set” (2004).
# Calls of active or inactive are those of the source.
# Assays:
# [1] = control 3'UTR Renilla luciferase suppression, dose response, counter-screen for Shn3 inhibitor project, cell-based, Clone20-Shn3RL, cherry-picked (AID 624133); assay type: functional
# [2] = Shn3 3'UTR reporter inhibitors, dose response, cell-based, Clone20 osteoblasts, firefly luciferase, cherry-picked (AID 624132); assay type: functional;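 further: firefly luciferase luminescence from reporter carrying the Shn3 3'UTR in osteoblasts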
# [3] = HepG2 cell cytotoxicity, dose response, cytotoxicity control for Shn3 inhibitor project, CellTiter-Glo, cherry-picked (AID 624134); assay type: functional, cell-based
# [4] = molecular target: T1, Polyadenylate-binding protein 1 (Homo sapiens, UniProt P11940); experiment: PABP1 MLLE–PAM2 interaction inhibitors, dose response, miRNA deadenylation inhibitor project, biochemical, fluorescence polarization, Cy5-PAM2 peptide, secondary (AID 602260); assay type: functional; settings: read-out: IC50_Mean
# T1 sequence (P11940 whole entry): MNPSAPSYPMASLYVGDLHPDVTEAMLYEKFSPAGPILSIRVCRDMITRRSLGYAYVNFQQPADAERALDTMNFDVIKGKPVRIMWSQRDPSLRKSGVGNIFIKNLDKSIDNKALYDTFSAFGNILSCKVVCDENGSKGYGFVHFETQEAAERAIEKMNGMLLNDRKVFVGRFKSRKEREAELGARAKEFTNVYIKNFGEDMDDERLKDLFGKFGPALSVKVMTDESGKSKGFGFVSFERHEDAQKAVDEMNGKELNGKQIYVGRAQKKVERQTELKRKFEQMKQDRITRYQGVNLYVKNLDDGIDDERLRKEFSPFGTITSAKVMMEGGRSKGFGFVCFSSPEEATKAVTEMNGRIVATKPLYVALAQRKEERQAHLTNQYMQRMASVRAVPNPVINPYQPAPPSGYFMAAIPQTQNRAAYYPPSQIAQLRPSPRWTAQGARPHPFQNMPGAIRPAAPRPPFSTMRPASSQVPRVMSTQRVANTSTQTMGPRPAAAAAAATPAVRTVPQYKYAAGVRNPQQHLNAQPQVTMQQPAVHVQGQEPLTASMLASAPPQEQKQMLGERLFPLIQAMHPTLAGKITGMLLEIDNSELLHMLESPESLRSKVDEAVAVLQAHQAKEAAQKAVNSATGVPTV
# [5] = molecular target: T1, Polyadenylate-binding protein 1; experiment: PABP1 MLLE–PAM2 binding inhibitor potency, dose response, biochemical, fluorescence polarization, FITC-PAM2 peptide (AID 602259); assay type: functional; settings: read-out: IC50_Mean
# [6] = Luminescence Cell-Based Dose Retest to Confirm Inhibitors of Cancer Stem Cells. [Related pubchem assays (depositor defined):AID2717, AID2721]; assay type: functional; settings: Homo sapiens
# [7] = growth suppression of beta-catenin-knockout colon cells, dose response, cell-based, HCT116, human colon tumor (AID 1045); assay type: functional;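 further: HCT116 colon tumor cells with beta catenin knocked out; cells exposed to compound for 60 hours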
# [8] = growth suppression of PTEN-null colon cells, dose response, cell-based, HCT116 PTEN knockout (AID 1047); assay type: functional;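 further: HCT116 colon tumor cells with PTEN knocked out; cells exposed to compound for 60 hours before readout; potency for loss of cell viability measured by luminescence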
# cells = assay type: functional
# [9] = NIH-3T3 fibroblast cytotoxicity, dose response, cytotoxicity control, cell-based, fluorescence, Alamar Blue, secondary assay (AID 2327); assay type: functional;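 further: NIH-3T3 mouse fibroblasts cultured with fluconazole at 8 µg/mL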
# [10] = C. albicans growth with fluconazole, confirmation, fluorescence, retest (AID 2467); assay type: functional, cell-based
# [11] = inhibitors of HIV Env-driven cell fusion, dose response, cherry-pick (AID 652057); assay type: functional, cell-based
# INS1 = experiment: beta cell apoptosis inhibitors, cytokine rescue, dose response, luminescence, retest (AID 449756); assay type: functional, cell-based; settings: Rattus norvegicus;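 further: cell death triggered by IL-1 beta plus TNF-alpha plus IFN-gamma mixture; protective hits raise ATP signal compared with cytokine alone wells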
# [12] = molecular target: T2, Rac GTPase-activating protein 1 (Homo sapiens, UniProt Q9H0H5); experiment: MgcRacGAP GTPase-activating activity inhibitors, confirmation, biochemical, ADP Hunter fluorescence, primary and confirmatory (AID 624330); assay type: functional
# T2 sequence (Q9H0H5 whole entry): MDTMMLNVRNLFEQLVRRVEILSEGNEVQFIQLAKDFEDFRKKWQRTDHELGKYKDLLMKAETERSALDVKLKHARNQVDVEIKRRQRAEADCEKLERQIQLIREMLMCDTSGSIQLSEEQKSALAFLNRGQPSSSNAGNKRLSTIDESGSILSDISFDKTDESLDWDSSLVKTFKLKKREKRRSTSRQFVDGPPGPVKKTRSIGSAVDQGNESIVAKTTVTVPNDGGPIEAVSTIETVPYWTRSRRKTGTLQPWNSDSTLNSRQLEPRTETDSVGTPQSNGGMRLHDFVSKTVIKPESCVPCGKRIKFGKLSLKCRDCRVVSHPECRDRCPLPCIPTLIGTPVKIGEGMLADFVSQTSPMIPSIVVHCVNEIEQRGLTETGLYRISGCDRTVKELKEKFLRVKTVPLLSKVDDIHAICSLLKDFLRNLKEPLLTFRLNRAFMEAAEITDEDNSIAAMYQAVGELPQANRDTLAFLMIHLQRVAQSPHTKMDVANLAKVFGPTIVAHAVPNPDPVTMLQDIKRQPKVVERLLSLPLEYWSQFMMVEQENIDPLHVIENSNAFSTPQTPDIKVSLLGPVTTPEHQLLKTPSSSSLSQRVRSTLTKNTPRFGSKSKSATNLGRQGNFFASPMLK
# [13] = molecular target: T3, Zinc finger protein mex-5 (Caenorhabditis elegans, UniProt Q9XUB2); experiment: MEX-5/TCR-2 RNA interaction inhibitors, dose response, biochemical, C. elegans, fluorescence polarization (AID 1960)
# T3 sequence (Q9XUB2 whole entry): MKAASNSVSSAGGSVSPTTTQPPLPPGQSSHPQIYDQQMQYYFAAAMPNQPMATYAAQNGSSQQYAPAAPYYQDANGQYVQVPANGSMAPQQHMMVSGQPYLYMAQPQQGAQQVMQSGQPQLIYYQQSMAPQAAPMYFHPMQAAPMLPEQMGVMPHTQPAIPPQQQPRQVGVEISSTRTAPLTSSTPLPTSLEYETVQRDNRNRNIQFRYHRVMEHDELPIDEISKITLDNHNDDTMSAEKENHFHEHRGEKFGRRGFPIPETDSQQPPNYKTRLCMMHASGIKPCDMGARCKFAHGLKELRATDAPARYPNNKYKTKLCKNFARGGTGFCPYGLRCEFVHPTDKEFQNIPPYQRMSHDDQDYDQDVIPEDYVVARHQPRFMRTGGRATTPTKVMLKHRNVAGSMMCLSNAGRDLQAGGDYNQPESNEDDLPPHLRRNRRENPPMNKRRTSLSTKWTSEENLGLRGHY
# [14] = molecular target: T4, RNA-binding protein pos-1 (Caenorhabditis elegans, UniProt G5EF15); experiment: inhibitors of POS-1/mex-3 RNA binding, dose response, biochemical, fluorescence polarization (AID 1964);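 further: purified POS-1 fused to maltose binding protein made in E. coli; potency of compounds blocking POS-1 binding to fluorescent RNA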
# T4 sequence (G5EF15 whole entry): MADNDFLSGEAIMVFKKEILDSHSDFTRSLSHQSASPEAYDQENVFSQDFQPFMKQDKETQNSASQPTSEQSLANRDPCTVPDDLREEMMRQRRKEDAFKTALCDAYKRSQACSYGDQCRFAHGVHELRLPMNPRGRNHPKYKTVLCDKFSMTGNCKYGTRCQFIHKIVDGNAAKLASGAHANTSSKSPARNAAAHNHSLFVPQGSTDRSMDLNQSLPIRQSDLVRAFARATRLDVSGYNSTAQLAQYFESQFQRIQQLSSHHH
# Paired box protein Pax-8 = Paired box protein Pax-8 (Homo sapiens, UniProt Q06710); experiment: inhibitors of PAX8-driven TPO luciferase reporter, dose response, RMG-I cells, cherry-pick (AID 687027); assay type: functional, cell-based;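 further: luciferase reporter driven by Pax8 target thyroperoxidase promoter measured by SteadyGlo luminescence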
# Chain of Paired box protein Pax-8 (Q06710 whole entry): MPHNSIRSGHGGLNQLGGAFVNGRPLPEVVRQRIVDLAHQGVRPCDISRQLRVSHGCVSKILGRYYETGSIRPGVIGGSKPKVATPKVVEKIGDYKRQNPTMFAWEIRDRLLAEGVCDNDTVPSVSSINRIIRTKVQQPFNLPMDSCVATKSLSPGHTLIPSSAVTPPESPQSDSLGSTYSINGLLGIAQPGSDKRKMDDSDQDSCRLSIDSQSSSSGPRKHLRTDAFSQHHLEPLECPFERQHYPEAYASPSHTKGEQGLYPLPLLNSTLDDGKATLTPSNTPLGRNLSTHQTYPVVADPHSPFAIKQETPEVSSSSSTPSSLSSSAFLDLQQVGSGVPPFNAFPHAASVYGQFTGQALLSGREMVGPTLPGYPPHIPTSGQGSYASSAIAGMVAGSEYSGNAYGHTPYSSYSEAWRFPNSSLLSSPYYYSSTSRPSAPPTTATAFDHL
# Streptokinase A = molecular target: T5, Streptokinase A (Streptococcus pyogenes serotype M1, UniProt P10520); experiment: S. pyogenes streptokinase expression inhibitors, potency, dose response, plasminogen activation absorbance, OD405 (AID 1914); assay type: functional, Streptococcus pyogenes M1 GAS;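 further: secreted streptokinase activity via plasminogen activation per viability signal from cell pellet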
# T5 sequence (P10520 whole entry): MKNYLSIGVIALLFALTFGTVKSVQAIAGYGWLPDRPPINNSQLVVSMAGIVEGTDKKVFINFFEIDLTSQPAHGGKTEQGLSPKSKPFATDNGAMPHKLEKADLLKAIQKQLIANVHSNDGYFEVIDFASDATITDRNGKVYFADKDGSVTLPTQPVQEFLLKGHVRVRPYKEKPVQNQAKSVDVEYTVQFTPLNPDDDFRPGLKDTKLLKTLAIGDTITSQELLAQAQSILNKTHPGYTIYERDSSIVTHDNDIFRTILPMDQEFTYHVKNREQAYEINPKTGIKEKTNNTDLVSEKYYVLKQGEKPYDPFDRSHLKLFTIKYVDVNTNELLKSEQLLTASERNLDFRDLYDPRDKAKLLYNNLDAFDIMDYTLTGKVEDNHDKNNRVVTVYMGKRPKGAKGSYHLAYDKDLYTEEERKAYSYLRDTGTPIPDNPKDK
# [15] = inhibitors of SNCA 5'UTR-driven reporter translation, confirmation, H4 neuroglioma cells, luminescence (AID 1988); assay type: functional, cell-based
# [16] = Luminescence Cell-Based Dose Response HTS to Identify Inhibitors of 5'UTR Stem-Loop Driven Prion Protein mRNA Translation in H4 Neuroglioblastoma Cells. [Related pubchem assays: 1827 (Project Summary), 1813 (Primary HTS)]; assay type: functional
# [17] = system: Streptococcus sp. 'group A'; experiment: growth inhibition of control SK(-) GAS strain, dose response, counter-screen for streptokinase expression inhibitor project, luminescence, kanamycin, BacTiterGlo, confirmation (AID 1900); assay type: functional, organism-based
# Streptococcus = experiment: Group A Streptococcus viability loss, dose response, counter-screen for streptokinase expression inhibitor project, luminescence, BacTiterGlo (AID 1915); assay type: functional, organism-based;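 further: potency for reduction of bacterial viability or growth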
# [18] = inhibitors of firefly luciferase expression or activity, dose response, H4 neuroglioma cells, luminescence (AID 1990); assay type: functional, cell-based
# Cytochrome P450 3A4 = Cytochrome P450 3A4 (Homo sapiens, UniProt P08684);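 further: CYP3A4 tested as one member of a cytochrome P450 panel screen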
# Chain of Cytochrome P450 3A4 (P08684 whole entry): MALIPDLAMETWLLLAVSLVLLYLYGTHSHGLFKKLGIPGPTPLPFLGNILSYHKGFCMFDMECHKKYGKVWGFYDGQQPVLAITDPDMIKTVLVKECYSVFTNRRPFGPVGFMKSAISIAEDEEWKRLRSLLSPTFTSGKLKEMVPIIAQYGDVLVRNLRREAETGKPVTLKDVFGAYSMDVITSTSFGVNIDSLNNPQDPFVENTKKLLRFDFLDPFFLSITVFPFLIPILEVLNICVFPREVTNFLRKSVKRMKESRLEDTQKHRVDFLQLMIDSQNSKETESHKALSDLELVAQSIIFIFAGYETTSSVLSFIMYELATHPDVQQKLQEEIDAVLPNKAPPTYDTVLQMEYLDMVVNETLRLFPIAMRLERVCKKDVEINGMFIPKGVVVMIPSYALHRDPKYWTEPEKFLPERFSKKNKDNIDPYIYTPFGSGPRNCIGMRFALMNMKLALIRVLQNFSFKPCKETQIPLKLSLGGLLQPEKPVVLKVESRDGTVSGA
smiles,measurement,setting,value
COc1ccccc1CNc1nc(NCc2ccccc2SC)c2sccc2n1,AC50,[1],5.2 µM (active)
same,AC50,[2],4.48 µM (active)
same,AC50,[3],21.1 µM (active)
C=CCNC(=S)NS(=O)(=O)c1cccs1,IC50,[4],> 66 µM (inactive)
same,IC50,[5],> 66 µM (inactive)
O=C(NC(=S)Nc1ccc(S(=O)(=O)N2CCCC2)cc1)c1cccs1,IC50,[4],> 66 µM (inactive)
same,IC50,[5],> 66 µM (inactive)
Cc1ccc(Cl)cc1NC(=O)c1ccccc1OCC(=O)Nc1ccc(Cl)cc1,AC50,[6],10.6 µM (inconclusive)
same,EC50,[7],10.9 µM (active)
same,EC50,[8],8.82 µM (active)
Cn1c(COc2ccc(Br)cc2)nnc1SC1CCc2ccccc2C1=O (configuration not stated),AC50,[1],12.5 µM (active)
same,AC50,[2],35.2 µM (active)
same,AC50,[3],58.9 µM (active)
Cc1oc(-c2ccc(Cl)cc2)nc1CN1CCCC(C(=O)N2CCN(C(=O)c3ccco3)CC2)C1 (configuration not stated),EC50,[7],17.3 µM (active)
same,EC50,[8],26 µM (active)
O=C(O)CCCCCN1C(=O)/C(=C\c2ccncc2)SC1=S,IC50,cells,23.6 µM (active)
same,EC50,[9],6.7 µM (inconclusive)
same,EC50,[10],1.45 µM (active)
Cc1ccc(-c2ccc3c(c2)O[C@@H](CN(C)Cc2cccnc2)[C@H](C)CN([C@H](C)CO)S3(=O)=O)cc1,AC50,[11],33.3 µM (active)
CCCOc1nc2c(c(=O)n(C)c(=O)n2C)n1Cc1cccc2ccccc12,EC50,[7],27.1 µM (active)
same,EC50,[8],49 µM (active)
same,AC50,INS1,6.39 µM (active)
Cc1nn(-c2ccccc2)c(C)c1/C=N/NC(=O)CSc1nc2ccccc2c(=O)n1-c1ccc(Br)cc1,EC50,[7],7.27 µM (active)
same,EC50,[8],7.38 µM (active)
O=C(N/N=C/c1cc([N+](=O)[O-])ccc1O)C1C2CCCCC21 (configuration not stated),EC50,[9],> 150 µM (inactive)
same,EC50,[10],2.35 µM (active)
O=[N+]([O-])c1cccc(C(=S)N2CCN(c3ccc(F)cc3)CC2)c1,IC50,[4],> 66 µM (inactive)
same,IC50,[5],> 66 µM (inactive)
CCOC(=O)CCNC(C)C1COc2ccccc2O1 (configuration not stated),IC50,[12],178 µM (active)
Cc1cc(O)c(/C=N/Nc2ccc(Cl)cc2)c(=O)o1,EC50,[9],29.8 µM (active)
same,EC50,[10],0.273 µM (active)
N#CCSc1nnc(CNc2ccc(F)cc2)o1,IC50,[4],> 66 µM (inactive)
same,IC50,[5],> 66 µM (inactive)
Cc1nn(Cc2ccc(Cl)cc2)c(C)c1NC(=O)c1cc(C(C)C)on1,AC50,[1],9.1 µM (active)
same,AC50,[2],6.2 µM (active)
same,AC50,[3],67 µM (active)
COc1cccc2cc(C(=O)Oc3ccc(NC(C)=O)cc3)c(=O)oc12,IC50,[12],34.9 µM (active)
CCOC(=O)C1(Cc2cccc(OC)c2)CCN(C/C=C/c2ccc(OC)cc2)CC1,AC50,[1],5.59 µM (active)
same,AC50,[2],4.75 µM (active)
same,AC50,[3],51.6 µM (active)
COc1cc(C(CC(=O)N2CCCC2)c2c(OC)cc(OC)c3ccc(=O)oc23)cc(OC)c1OC (configuration not stated),EC50,[13],16.2 µM (active)
same,IC50,[4],> 66 µM (inactive)
same,IC50,[5],60.3 µM (inactive)
same,EC50,[14],8.14 µM (inconclusive)
Oc1ccccc1/C=N/n1c(S)nnc1-c1ccccc1,IC50,[12],82.2 µM (active)
CC(C)C1=C2CCCCC2NC(=O)N1 (configuration not stated),IC50,[4],> 66 µM (inactive)
same,IC50,[5],> 66 µM (inactive)
COC(=O)C1=C(c2ccc(F)cc2OCc2ccccc2)C[C@@H]2CC[C@H]1N2C(=O)NCc1ccc(C(F)(F)F)cc1,AC50,[1],7.19 µM (active)
same,AC50,[2],9.14 µM (active)
same,AC50,[3],> 70 µM (inactive)
same,AC50,Paired box protein Pax-8,10.9 µM (active)
S=C(NCCCCN(Cc1ccc(Cl)cc1)c1ccc(Br)cn1)NCCCc1cnc[nH]1,AC50,[1],39.3 µM (active)
same,AC50,[2],7.24 µM (active)
same,AC50,[3],19.5 µM (active)
Cn1c(C(=O)NC2CCCCCC2)cc2c(=O)n(C)c3ccccc3c21,EC50,[7],21.1 µM (active)
same,EC50,[8],24.4 µM (active)
COc1ccc2cc3c(N)nn(C(=O)C4CCC(C(C)(C)C)CC4)c3nc2c1 (configuration not stated),EC50,Streptokinase A,> 150 µM (not active)
same,EC50,[15],12.3 µM (active)
same,EC50,[16],9.82 µM (active)
same,EC50,[17],2.15 µM (active)
same,EC50,Streptococcus,4.71 µM (active)
same,EC50,[18],51.1 µM (active)
O=C(Nc1ccc(Cl)cc1)C1CCCN(C2=NS(=O)(=O)c3ccccc32)C1 (configuration not stated),AC50,[11],25.9 µM (active)
CCCNC(=O)c1ccc2c(O)c(O)c(-c3ccc(Cl)c([N+](=O)[O-])c3)nc2c1,EC50,[9],> 150 µM (inactive)
same,EC50,[10],2.18 µM (active)
same,AC50,INS1,5.06 µM (active)
O=C(Nc1nnc(COc2ccc(F)cc2)s1)c1ccco1,EC50,[9],> 160 µM (inactive)
same,EC50,[10],3.15 µM (active)
O=C(Nc1nnc(-c2cccs2)o1)c1cccc(F)c1,EC50,[7],8.96 µM (active)
same,EC50,[8],10.5 µM (active)
same,EC50,[9],> 160 µM (inactive)
same,EC50,[10],1.25 µM (active)
O=C(O)c1cccc(NC(=S)NC(=O)c2ccncc2)c1,IC50,[4],> 66 µM (inactive)
same,IC50,[5],> 66 µM (inactive)
Cc1cccc(NC(=S)NC(=O)c2cccs2)n1,AC50,Cytochrome P450 3A4,28.2 µM (inconclusive)
same,IC50,[4],> 66 µM (inactive)
same,IC50,[5],> 66 µM (inactive)
